Where “and” joins values, the source holds several entries; their conditions need not be identical. Identical values can stand only once. Inconclusive results and toxic doses are left out. No stated cut-off is given here; in the data, active means T/C of 150% or more; inactive means T/C below 125%.
System: L1210 leukemia ip in BDF1 mice, survival T/C
Assay: NCI In Vivo Anticancer Drug Screen. Data for tumor model L1210 Leukemia (intraperitoneal) in B6D2F1 (BDF1) mice
Conditions: endpoint: mean survival time, higher = longer survival
Procedure, shortened: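 Transplanted-tumor mice were given test agent; controls received vehicle only. Survival readings from the two groups were divided (treated over control).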

[1] = dose: 100.0 mg/kg/injection, schedule: Q04DX003 (ip), vehicle: saline
[2] = dose: 200.0 mg/kg/injection, schedule: Q04DX003 (ip), vehicle: saline
[3] = dose: 400.0 mg/kg/injection, schedule: Q04DX003 (ip), vehicle: saline
[4] = dose: 100.0 mg/kg/injection, schedule: Q01DX001 (ip), vehicle: saline with Tween-80
[5] = dose: 200.0 mg/kg/injection, schedule: Q01DX001 (ip), vehicle: saline with Tween-80
[6] = dose: 400.0 mg/kg/injection, schedule: Q01DX001 (ip), vehicle: saline
[7] = dose: 100.0 mg/kg/injection, schedule: Q04DX002 (ip), vehicle: Klucel (hydroxypropylcellulose) (HPC)
[8] = dose: 200.0 mg/kg/injection, schedule: Q04DX002 (ip), vehicle: Klucel (hydroxypropylcellulose) (HPC)
[9] = dose: 400.0 mg/kg/injection, schedule: Q04DX002 (ip), vehicle: Klucel (hydroxypropylcellulose) (HPC)
[10] = dose: 100.0 mg/kg/injection, schedule: Q01DX001 (ip), vehicle: saline
[11] = dose: 200.0 mg/kg/injection, schedule: Q01DX001 (ip), vehicle: saline
[12] = dose: 100.0 mg/kg/injection, schedule: Q01DX009 (ip), vehicle: Klucel (hydroxypropylcellulose) (HPC)
[13] = dose: 200.0 mg/kg/injection, schedule: Q01DX009 (ip), vehicle: Klucel (hydroxypropylcellulose) (HPC)
[14] = dose: 400.0 mg/kg/injection, schedule: Q01DX009 (ip), vehicle: Klucel (hydroxypropylcellulose) (HPC)
[15] = dose: 50.0 mg/kg/injection, schedule: Q01DX001 (ip), vehicle: carboxymethylcellulose (CMC)

Measured: T/C

O=C(Nc1ccc([N+](=O)[O-])cc1Cl)Oc1ccc(OCc2ccccc2)cc1
inactive: dose: 100.0 mg/kg/injection, schedule: Q04DX003 (ip), vehicle: Klucel (hydroxypropylcellulose) (HPC) 91 % of control | dose: 200.0 mg/kg/injection, schedule: Q04DX003 (ip), vehicle: Klucel (hydroxypropylcellulose) (HPC) 91 % of control | dose: 400.0 mg/kg/injection, schedule: Q04DX003 (ip), vehicle: Klucel (hydroxypropylcellulose) (HPC) 96 % of control

CCOC(CN=CN(C)C)OCC
inactive: [1] 94 % of control | [2] 105 % of control | [3] 97 % of control

C/C=C/C1=C(Cl)C(=O)[C@@H](Cl)[C@@]1(O)C(=O)OC
inactive: dose: 1.25 mg/kg/injection, schedule: Q01DX009 (ip), vehicle: saline 101 % of control | dose: 2.5 mg/kg/injection, schedule: Q01DX009 (ip), vehicle: saline 97 % of control | dose: 2.5 mg/kg/injection, schedule: Q04DX003 (ip), vehicle: saline 101 % of control | dose: 5.0 mg/kg/injection, schedule: Q01DX009 (ip), vehicle: saline 103 % of control | dose: 5.0 mg/kg/injection, schedule: Q04DX003 (ip), vehicle: saline 95 % of control | dose: 10.0 mg/kg/injection, schedule: Q01DX001 (ip), vehicle: saline 94 % of control | dose: 10.0 mg/kg/injection, schedule: Q04DX003 (ip), vehicle: saline 100 % of control

CCCCCCCCCC(C)CC1CCCCC1 (configuration not stated)
inactive: [4] 96 % of control | [5] 96 % of control

O=[N+]([O-])c1ccc(/C=N/Nc2c3ccccc3nc3ccccc23)cc1
inactive: [6] 94 % of control

Cc1cc(N(CCCl)CCCl)ccc1C=Nc1ccc2c(c1)ncn2C
inactive: [7] 98 % of control | [8] 98 % of control | [9] 98 % of control

COc1ccc2c(OC)cccc2c1
inactive: dose: 100.0 mg/kg/injection, schedule: Q01DX009 (ip), vehicle: other 87 % of control | dose: 200.0 mg/kg/injection, schedule: Q01DX009 (ip), vehicle: other 91 % of control | dose: 400.0 mg/kg/injection, schedule: Q01DX009 (ip), vehicle: other 91 % of control

Cc1ccc2c(c1)S(=O)(=O)N(C)C(c1ccccc1)=C2
inactive: dose: 100.0 mg/kg/injection, schedule: Q01DX001 (ip), vehicle: steriod suspending solution 96 % of control | dose: 200.0 mg/kg/injection, schedule: Q01DX001 (ip), vehicle: steriod suspending solution 105 % of control | dose: 400.0 mg/kg/injection, schedule: Q01DX001 (ip), vehicle: steriod suspending solution 86 % of control

COc1cc(N=Nc2ccccc2)ccc1N
inactive: [10] 95 % of control | dose: 100.0 mg/kg/injection, schedule: Q04DX003 (ip), vehicle: acetone 100 % of control and 111 % of control | [11] 112 % of control | dose: 200.0 mg/kg/injection, schedule: Q04DX003 (ip), vehicle: acetone 95 % of control | [6] 96 % of control | dose: 400.0 mg/kg/injection, schedule: Q04DX003 (ip), vehicle: acetone 96 % of control and 91 % of control

NC(N)=Nc1ccccc1
inactive: dose: 50.0 mg/kg/injection, schedule: Q01DX009 (ip), vehicle: saline with Tween-80 107 % of control | dose: 100.0 mg/kg/injection, schedule: Q01DX009 (ip), vehicle: saline with Tween-80 101 % of control | [1] 101 % of control | dose: 200.0 mg/kg/injection, schedule: Q01DX009 (ip), vehicle: saline with Tween-80 104 % of control | [2] 115 % of control

COc1ccc(S(=O)(=O)Nc2cc([N+](=O)[O-])ccc2OC)cc1
inactive: [12] 103 % of control | [13] 97 % of control | [14] 95 % of control

CC(C)CC(C)OB(OC(C)CC(C)C)OC(C)CC(C)C (configuration not stated)
inactive: [15] 102 % of control | dose: 100.0 mg/kg/injection, schedule: Q01DX001 (ip), vehicle: carboxymethylcellulose (CMC) 111 % of control | dose: 200.0 mg/kg/injection, schedule: Q01DX001 (ip), vehicle: carboxymethylcellulose (CMC) 102 % of control | dose: 400.0 mg/kg/injection, schedule: Q01DX001 (ip), vehicle: carboxymethylcellulose (CMC) 96 % of control

Cc1nccc2ccsc12
inactive: dose: 75.0 mg/kg/injection, schedule: Q01DX001 (ip), vehicle: other 105 % of control | dose: 150.0 mg/kg/injection, schedule: Q01DX001 (ip), vehicle: other 102 % of control

Cc1ccc(NC(=O)C(F)(F)F)cc1F
inactive: dose: 50.0 mg/kg/injection, schedule: Q01DX009 (ip), vehicle: Klucel (hydroxypropylcellulose) (HPC) 93 % of control | [12] 104 % of control | [13] 97 % of control

COc1ccccc1OC(=O)c1ccccc1OC(=O)c1cccnc1
inactive: dose: 100.0 mg/kg/injection, schedule: Q04DX002 (ip), vehicle: saline with Tween-80 101 % of control | dose: 200.0 mg/kg/injection, schedule: Q04DX002 (ip), vehicle: saline with Tween-80 96 % of control | dose: 400.0 mg/kg/injection, schedule: Q04DX002 (ip), vehicle: saline with Tween-80 89 % of control

CCCCCCCCCCCCCCCCCC[As](=O)(O)CCCCCCCCCCCCCCCCCC
inactive: dose: 50.0 mg/kg/injection, schedule: Q01DX001 (ip), vehicle: saline 97 % of control | [10] 101 % of control | [11] 91 % of control | [6] 101 % of control

O=C(NC1CCCCC1)C(=S)NC1CCCCC1
inactive: [12] 93 % of control | [13] 101 % of control | [14] 98 % of control

FC(F)(F)c1ccc(N2CCCCC2)cc1
inactive: dose: 75.0 mg/kg/injection, schedule: Q04DX002 (ip), vehicle: saline 103 % of control | dose: 150.0 mg/kg/injection, schedule: Q04DX002 (ip), vehicle: saline 95 % of control | dose: 300.0 mg/kg/injection, schedule: Q04DX002 (ip), vehicle: saline 95 % of control

CC1(C)OC2C(CO)OC(OCc3ccccc3)C2O1 (configuration not stated)
inactive: dose: 50.0 mg/kg/injection, schedule: Q04DX003 (ip), vehicle: saline 100 % of control | [1] 91 % of control | [2] 105 % of control | [3] 88 % of control

N#CCCCCCCCCC(=O)OCCC#N
inactive: dose: 100.0 mg/kg/injection, schedule: Q01DX001 (ip), vehicle: other 95 % of control | dose: 200.0 mg/kg/injection, schedule: Q01DX001 (ip), vehicle: other 98 % of control | dose: 400.0 mg/kg/injection, schedule: Q01DX001 (ip), vehicle: other 97 % of control

NC(=O)C1CCCN1Cc1ccc2c(c1)OCO2 (configuration not stated)
inactive: [10] 97 % of control | [11] 94 % of control | [6] 94 % of control

NNCc1cc(Cl)c2cccnc2c1O
inactive: [7] 105 % of control | [8] 105 % of control | [9] 99 % of control

CCCCCc1ccc(/C(C)=N/NC(=O)c2ccc[n+](C)c2)cc1
inactive: dose: 6.25 mg/kg/injection, schedule: Q04DX003 (ip), vehicle: saline 101 % of control | dose: 12.5 mg/kg/injection, schedule: Q04DX003 (ip), vehicle: saline 95 % of control | dose: 25.0 mg/kg/injection, schedule: Q04DX003 (ip), vehicle: saline with Tween-80 98 % of control | dose: 25.0 mg/kg/injection, schedule: Q04DX003 (ip), vehicle: saline 95 % of control

O=C1C(Cl)=C(N/N=c2/[nH][nH]/c(=N/NC3=C(Cl)C(=O)c4ccccc4C3=O)c3ccccc23)C(=O)c2ccccc21
inactive: dose: 25.0 mg/kg/injection, schedule: Q01DX001 (ip), vehicle: carboxymethylcellulose (CMC) 104 % of control | [15] 101 % of control

CC1(C)/C(=C/c2ccccc2)C(=O)c2ccccc21
inactive: dose: 100.0 mg/kg/injection, schedule: Q01DX009 (ip), vehicle: saline 101 % of control | [1] 96 % of control | dose: 200.0 mg/kg/injection, schedule: Q01DX009 (ip), vehicle: saline 96 % of control | [2] 98 % of control | dose: 400.0 mg/kg/injection, schedule: Q01DX009 (ip), vehicle: saline 102 % of control | [3] 102 % of control

Cc1nc(N)nc(N)c1CCCOc1ccc(N)cc1
inactive: dose: 100.0 mg/kg/injection, schedule: Q01DX001 (ip), vehicle: Klucel (hydroxypropylcellulose) (HPC) 103 % of control | dose: 200.0 mg/kg/injection, schedule: Q01DX001 (ip), vehicle: Klucel (hydroxypropylcellulose) (HPC) 97 % of control | dose: 400.0 mg/kg/injection, schedule: Q01DX001 (ip), vehicle: Klucel (hydroxypropylcellulose) (HPC) 100 % of control

CCOC(=O)CNCCN(CC)CC
inactive: [4] 101 % of control | [5] 111 % of control | dose: 400.0 mg/kg/injection, schedule: Q01DX001 (ip), vehicle: saline with Tween-80 94 % of control
